Reference: PubChem BioAssay (NCI)
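Five compound concentrations were applied to cells in 96-well plates for 48 hours; endpoints were derived by simple linear interpolation of the resulting dose-response curve. TGI denotes the concentration required for complete inhibition of growth.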

Key:
Assay in all cases: growth of human tumour cells (NCI), 48 h
[1] = tested on: SK-MEL-2 melanoma
[2] = tested on: ACHN renal
[3] = tested on: U251 CNS
[4] = tested on: MALME-3M melanoma
[5] = tested on: HT29 colon
[6] = tested on: HL-60(TB) leukemia
[7] = tested on: SK-OV-3 ovarian
[8] = tested on: RPMI-8226 leukemia
[9] = tested on: COLO 205 colon
[10] = tested on: HS 578T breast

Structure (SMILES) | TGI [1] | TGI [2] | TGI [3] | TGI [4] | TGI [5] | TGI [6] | TGI [7] | TGI [8] | TGI [9] | TGI [10]
C=CCNC(=S)N1CC(C)C(=O)Nc2cc(Cl)ccc21 (configuration not stated) | > 100 µM | > 100 µM | > 100 µM | > 100 µM | > 100 µM | > 100 µM | > 100 µM | > 100 µM | > 100 µM | 
Cc1cccc(Br)[n+]1[O-] | > 100 µM | > 100 µM | > 100 µM | > 100 µM | > 100 µM |  | > 100 µM | > 100 µM | > 100 µM | > 100 µM
NCCSc1cc(O)c2c(c1N)C(=O)c1ccccc1C2=O | > 100 µM | > 100 µM | > 100 µM | 75.5 µM | > 100 µM | 66.8 µM | > 100 µM |  |  | 
Nc1ccc2[nH]c(-c3cccc(C(F)(F)F)c3)cc(=O)c2c1 |  | > 100 µM | > 100 µM | > 100 µM | > 100 µM |  | > 100 µM | > 100 µM | > 100 µM | 65.6 µM
Cc1[nH]c(=O)[nH]c(=O)c1/C=C/C(=O)O (tested in a mixture with another compound) | > 625 µM |  | > 625 µM | > 625 µM | > 625 µM | > 625 µM | > 625 µM | > 625 µM | > 625 µM | 
C=CCN1/C(=C(\C#N)c2nc3ccccc3[nH]2)Sc2c1nc[nH]c2=O | > 100 µM | > 100 µM | > 100 µM | > 100 µM | > 100 µM | > 100 µM | > 100 µM | > 100 µM | > 100 µM | 
N#Cc1ccc(Cc2ccccn2)cc1Cl | > 100 µM | > 100 µM | > 100 µM | > 100 µM | > 100 µM | > 100 µM | > 100 µM |  | > 100 µM | 
CC(CCC[C@H](C)CO)[C@H]1[C@@H](O)C(O)C2[C@@H]3C[C@@H](O)C4(O)C[C@@H](O)CC[C@]4(C)C3CC[C@@]21C (some centres not stated) | > 100 µM | > 100 µM | > 100 µM | > 100 µM | > 100 µM | > 100 µM | > 100 µM | > 100 µM | > 100 µM | 
CNC(=O)NCNC(=O)NC | > 100 µM |  | > 100 µM | > 100 µM | > 100 µM | > 100 µM | > 100 µM | > 100 µM | > 100 µM | 
CCCCn1c(CSc2ccc(Cl)cc2)c(C(=O)OCC)c2cc(OC)c(Br)cc21 | > 100 µM | > 100 µM | > 100 µM | > 100 µM |  | > 100 µM | > 100 µM | > 100 µM | > 100 µM | > 100 µM
CC(=O)OC(CC1(C)C(C)CCC23COC(=O)C2=CCCC31)c1ccoc1 (configuration not stated) | 49.7 µM | > 100 µM | 29.3 µM | 55.2 µM | > 100 µM |  | > 100 µM |  | > 100 µM | 
COC(=O)C1CCC(=O)N1C(c1cc(OC)c(OC)c(OC)c1)c1cc(OC)c(OC)c(OC)c1 (configuration not stated) | > 100 µM | > 100 µM | > 100 µM |  | > 100 µM | > 100 µM | > 100 µM | > 100 µM |  | > 100 µM
CCOC(=O)CC1COc2ccc3c(c21)OCO3 (configuration not stated) | > 100 µM | > 100 µM | > 100 µM | > 100 µM | > 100 µM | > 100 µM | > 100 µM | > 100 µM | > 100 µM | 
COc1cc(C2C3=C(COC3=O)Oc3cc4c(cc32)OCO4)ccc1O (configuration not stated) | > 100 µM | > 94.7 µM | > 100 µM |  | 37.9 µM |  | 0.932 µM | > 63.2 µM | 0.576 µM | 
CCOC(=O)C(=O)C=P(c1ccccc1)(c1ccccc1)c1ccccc1 | > 100 µM | > 100 µM | > 100 µM | > 100 µM | > 100 µM | > 100 µM | > 100 µM | > 100 µM | > 100 µM | 
COC(=O)C1CCC(=S)N1C(=O)OCc1ccccc1 (configuration not stated) | > 100 µM | > 100 µM | > 100 µM | > 100 µM | > 100 µM |  | > 100 µM | > 100 µM | > 100 µM | > 100 µM
CC(CC(N)C(=O)O)C(=O)O (configuration not stated) | > 100 µM | > 100 µM | > 100 µM | > 100 µM | > 100 µM | > 100 µM |  |  |  | > 100 µM
COc1ccc(OC)c(NCC(=O)Nn2cnc3ccc(S(=O)(=O)Nc4cc(OC)ccc4OC)cc3c2=O)c1 | > 100 µM | > 100 µM | > 100 µM | > 100 µM | > 100 µM | 43.1 µM | > 100 µM |  | > 100 µM | > 100 µM
CCOC(=O)NN(C(=O)OCC)C(C(=O)C1=CCCCC1)N(NC(=O)OCC)C(=O)OCC | > 100 µM | > 100 µM | > 100 µM | > 100 µM | > 100 µM |  | > 100 µM | > 100 µM | > 100 µM | > 100 µM
COc1cccc(C23CCCC(C2)NCC3Br)c1OC (configuration not stated) | > 100 µM | 73.8 µM | > 100 µM | > 100 µM | > 100 µM |  | > 100 µM | 45.7 µM | 27.1 µM | 78.5 µM
Clc1cccc(-c2sc(-c3ccsc3)cc2Cc2ccsc2)c1 |  |  |  | > 10 µM | > 10 µM | > 10 µM | > 10 µM | > 10 µM | > 10 µM | 
Cc1cc(Cl)nc2nc(Cl)c(N)cc12 | 31.4 µM | 18.4 µM | 4.3 µM | 29.3 µM |  |  | 37.8 µM | 5.74 µM | 4.3 µM | > 24.3 µM
COc1cc2c(c(OC)c1OC)-c1ccc(SC)c(=O)cc1C(CC(=O)Oc1cccc([N+](=O)[O-])c1)C2 (configuration not stated) | > 100 µM | > 100 µM |  | > 100 µM | 1.99 µM |  | > 100 µM | > 54.8 µM | 2.24 µM | 
COc1cc2c3cc1Oc1c(O)c(OC)cc4c1C(Cc1ccc(O)c(c1)Oc1ccc(cc1)CC3N(C)CC2)N(C)CC4 (configuration not stated) | 38.4 µM | 33.7 µM | 27.3 µM | 32.8 µM | 18.9 µM | 48.4 µM | 40.1 µM | 84.4 µM | 43.4 µM | 
